{
  "source": "patent US20080176936A1",
  "about": "“Classes of Compounds that Interact with Integrins” (priority 2005, published 2008)",
  "data": [
    {"target": "T1, αllbβ3 integrin (Homo sapiens, UniProt P05106+P08514)", "T1 construct": "Human platelet membrane preparations were used as a source of αllbβ3 integrin; from tissue; host or cells: human platelets (membrane preparation)", "T1 sequence (P08514 32-887 limits assumed)": "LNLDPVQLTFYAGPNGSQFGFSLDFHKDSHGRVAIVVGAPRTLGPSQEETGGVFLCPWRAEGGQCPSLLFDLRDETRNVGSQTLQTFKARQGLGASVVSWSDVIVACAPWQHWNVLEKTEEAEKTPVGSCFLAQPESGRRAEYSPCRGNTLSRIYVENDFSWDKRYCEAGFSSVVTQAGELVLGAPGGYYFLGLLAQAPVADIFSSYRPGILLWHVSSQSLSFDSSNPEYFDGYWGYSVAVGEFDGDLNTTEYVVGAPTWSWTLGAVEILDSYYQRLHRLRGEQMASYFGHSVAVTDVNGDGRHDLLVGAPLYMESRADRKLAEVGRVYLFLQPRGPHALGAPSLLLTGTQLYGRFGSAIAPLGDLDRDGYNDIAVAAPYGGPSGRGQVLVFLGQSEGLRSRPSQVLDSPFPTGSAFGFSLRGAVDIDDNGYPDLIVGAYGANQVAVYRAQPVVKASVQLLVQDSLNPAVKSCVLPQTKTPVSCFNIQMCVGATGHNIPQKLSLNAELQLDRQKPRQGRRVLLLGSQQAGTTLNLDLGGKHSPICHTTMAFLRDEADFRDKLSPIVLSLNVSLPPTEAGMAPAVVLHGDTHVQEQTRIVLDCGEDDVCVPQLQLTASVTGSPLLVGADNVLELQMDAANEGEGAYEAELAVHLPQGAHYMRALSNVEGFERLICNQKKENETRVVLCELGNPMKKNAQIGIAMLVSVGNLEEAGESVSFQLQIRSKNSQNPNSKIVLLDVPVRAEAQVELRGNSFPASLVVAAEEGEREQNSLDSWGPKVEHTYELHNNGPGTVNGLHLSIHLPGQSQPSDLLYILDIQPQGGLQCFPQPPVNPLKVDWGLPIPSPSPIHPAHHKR", "T1 sequence (P08514 891-1039 partner limits assumed)": "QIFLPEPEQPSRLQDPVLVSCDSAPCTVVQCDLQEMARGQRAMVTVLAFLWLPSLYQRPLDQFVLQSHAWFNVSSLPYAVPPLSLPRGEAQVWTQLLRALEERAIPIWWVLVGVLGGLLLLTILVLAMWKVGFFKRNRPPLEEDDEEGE", "T1 sequence (P05106 27-788)": "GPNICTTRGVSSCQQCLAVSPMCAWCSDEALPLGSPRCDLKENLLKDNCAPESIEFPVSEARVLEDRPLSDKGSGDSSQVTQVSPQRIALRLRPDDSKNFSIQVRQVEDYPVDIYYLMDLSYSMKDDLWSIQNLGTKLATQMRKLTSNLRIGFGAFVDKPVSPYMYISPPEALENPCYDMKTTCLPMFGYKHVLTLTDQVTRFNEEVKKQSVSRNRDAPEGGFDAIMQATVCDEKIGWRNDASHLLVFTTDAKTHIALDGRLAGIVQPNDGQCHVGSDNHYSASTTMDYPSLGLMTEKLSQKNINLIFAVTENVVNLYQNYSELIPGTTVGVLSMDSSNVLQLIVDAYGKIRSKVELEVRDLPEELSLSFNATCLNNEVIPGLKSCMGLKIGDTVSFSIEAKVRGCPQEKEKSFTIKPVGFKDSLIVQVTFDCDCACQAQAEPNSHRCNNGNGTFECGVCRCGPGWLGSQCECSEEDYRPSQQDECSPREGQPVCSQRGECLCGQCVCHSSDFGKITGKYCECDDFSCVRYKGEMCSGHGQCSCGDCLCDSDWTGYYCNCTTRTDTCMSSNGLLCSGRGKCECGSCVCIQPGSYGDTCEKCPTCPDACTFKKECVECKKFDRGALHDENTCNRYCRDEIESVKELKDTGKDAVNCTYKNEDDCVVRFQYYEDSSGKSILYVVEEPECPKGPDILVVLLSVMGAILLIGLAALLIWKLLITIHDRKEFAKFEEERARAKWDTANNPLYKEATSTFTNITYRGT", "assay": "ELISA: inhibition of binding of αllbβ3 integrin membrane preparation to coated extracellular matrix protein", "conditions": "substrate fibrinogen, human platelet membrane preparation", "how_it_was_run": "(§1)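 Wells were coated with fibrinogen or vitronectin (10 µg/well), and integrin binding was measured by ELISA. αIIbβ3 came from human platelet membranes and αVβ3 from WM-115 cells, each preincubated with compound. Bound integrin was detected with a rabbit anti-β3 antibody, an HRP secondary and a colorimetric readout.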", "values": [
      {"smiles": "CC(=O)NC1C(OCCNC(=N)N)OC(COCC(=O)O)C(O)C1OCc1ccccc1", "note": "(single isomer, unassigned) [Compound 113]", "INHIBITION @ 250 uM RECEPTOR allBb3 SUBSTRATE FIBRINOGEN": "+ (36% to 60% inhibition at 250 micromolar)"},
      {"smiles": "COCC1OC(OCCNC(=N)N)C(NC(=O)c2ccccc2)C(OCc2ccc(C(=O)O)cc2)C1O", "note": "(single isomer, unassigned) [Compound 114]", "INHIBITION @ 250 uM RECEPTOR allBb3 SUBSTRATE FIBRINOGEN": "− (0% to 35% inhibition at 250 micromolar)"},
      {"smiles": "COCC1OC(OCCNC(=N)N)C(NC(=O)c2ccccc2)C(OCc2ccc(C(=O)O)cc2)C1O", "note": "(single isomer, unassigned) [Compound 115]", "INHIBITION @ 250 uM RECEPTOR allBb3 SUBSTRATE FIBRINOGEN": "− (0% to 35% inhibition at 250 micromolar)"},
      {"smiles": "CCOC1OC(COCC(=O)O)C(O)C(OCc2ccccc2)C1NC(=O)CN", "note": "(single isomer, unassigned) [Compound 116]", "INHIBITION @ 250 uM RECEPTOR allBb3 SUBSTRATE FIBRINOGEN": "− (0% to 35% inhibition at 250 micromolar)"},
      {"smiles": "CCOC1OC(COCC(=O)O)C(O)C(OCc2ccccc2)C1NC(=O)CN", "note": "(single isomer, unassigned) [Compound 117]", "INHIBITION @ 250 uM RECEPTOR allBb3 SUBSTRATE FIBRINOGEN": "+ (36% to 60% inhibition at 250 micromolar)"},
      {"smiles": "CCOC1OC(COCC(=O)O)C(O)C(OCc2ccccc2)C1NC(=O)CNC(=N)N", "note": "(single isomer, unassigned) [Compound 118]", "INHIBITION @ 250 uM RECEPTOR allBb3 SUBSTRATE FIBRINOGEN": "− (0% to 35% inhibition at 250 micromolar)"},
      {"smiles": "CCOC1OC(COCC(=O)O)C(O)C(OCc2ccccc2)C1NC(=O)CNC(=N)N", "note": "(single isomer, unassigned) [Compound 119]", "INHIBITION @ 250 uM RECEPTOR allBb3 SUBSTRATE FIBRINOGEN": "− (0% to 35% inhibition at 250 micromolar)"},
      {"smiles": "CCOC1OC(COCC(=O)O)C(O)C(OCc2ccccc2)C1NC(=O)CCN", "note": "(single isomer, unassigned) [Compound 120]", "INHIBITION @ 250 uM RECEPTOR allBb3 SUBSTRATE FIBRINOGEN": "+ (36% to 60% inhibition at 250 micromolar)"},
      {"smiles": "CCOC1OC(COCC(=O)O)C(O)C(OCc2ccccc2)C1NC(=O)CCNC(=N)N", "note": "(single isomer, unassigned) [Compound 122]", "INHIBITION @ 250 uM RECEPTOR allBb3 SUBSTRATE FIBRINOGEN": "++ (61% to 80% inhibition at 250 micromolar)"},
      {"smiles": "COC1OC(COCC(=O)O)C(O)C(OCc2ccccc2)C1NC(=O)CCCN", "note": "(single isomer, unassigned) [Compound 123]", "INHIBITION @ 250 uM RECEPTOR allBb3 SUBSTRATE FIBRINOGEN": "+ (36% to 60% inhibition at 250 micromolar)"},
      {"smiles": "COC1OC(COCC(=O)O)C(O)C(OCc2ccccc2)C1NC(=O)CCCN", "note": "(single isomer, unassigned) [Compound 124]", "INHIBITION @ 250 uM RECEPTOR allBb3 SUBSTRATE FIBRINOGEN": "++ (61% to 80% inhibition at 250 micromolar)"},
      {"smiles": "COC1OC(COCC(=O)O)C(O)C(OCc2ccccc2)C1NC(=O)CCCNC(=N)N", "note": "(single isomer, unassigned) [Compound 125]", "INHIBITION @ 250 uM RECEPTOR allBb3 SUBSTRATE FIBRINOGEN": "+ (36% to 60% inhibition at 250 micromolar)"}
    ]},
    {"target": "T1, αllbβ3 integrin", "assay": "ELISA: inhibition of binding of αllbβ3 integrin membrane preparation to coated extracellular matrix protein", "conditions": "substrate vitronectin, human platelet membrane preparation", "how_it_was_run": "as §1", "values": [
      {"smiles": "CC(=O)NC1C(OCCNC(=N)N)OC(COCC(=O)O)C(O)C1OCc1ccccc1", "note": "(single isomer, unassigned) [Compound 113]", "INHIBITION 250 uM RECEPTOR allBb3 SUBSTRATE VITRONECTIN": "+++ (81% to 100% inhibition at 250 micromolar)"},
      {"smiles": "COCC1OC(OCCNC(=N)N)C(NC(=O)c2ccccc2)C(OCc2ccc(C(=O)O)cc2)C1O", "note": "(single isomer, unassigned) [Compound 114]", "INHIBITION 250 uM RECEPTOR allBb3 SUBSTRATE VITRONECTIN": "++ (61% to 80% inhibition at 250 micromolar)"},
      {"smiles": "COCC1OC(OCCNC(=N)N)C(NC(=O)c2ccccc2)C(OCc2ccc(C(=O)O)cc2)C1O", "note": "(single isomer, unassigned) [Compound 115]", "INHIBITION 250 uM RECEPTOR allBb3 SUBSTRATE VITRONECTIN": "− (0% to 35% inhibition at 250 micromolar)"},
      {"smiles": "CCOC1OC(COCC(=O)O)C(O)C(OCc2ccccc2)C1NC(=O)CN", "note": "(single isomer, unassigned) [Compound 116]", "INHIBITION 250 uM RECEPTOR allBb3 SUBSTRATE VITRONECTIN": "− (0% to 35% inhibition at 250 micromolar)"},
      {"smiles": "CCOC1OC(COCC(=O)O)C(O)C(OCc2ccccc2)C1NC(=O)CN", "note": "(single isomer, unassigned) [Compound 117]", "INHIBITION 250 uM RECEPTOR allBb3 SUBSTRATE VITRONECTIN": "+++ (81% to 100% inhibition at 250 micromolar)"},
      {"smiles": "CCOC1OC(COCC(=O)O)C(O)C(OCc2ccccc2)C1NC(=O)CNC(=N)N", "note": "(single isomer, unassigned) [Compound 118]", "INHIBITION 250 uM RECEPTOR allBb3 SUBSTRATE VITRONECTIN": "+++ (81% to 100% inhibition at 250 micromolar)"},
      {"smiles": "CCOC1OC(COCC(=O)O)C(O)C(OCc2ccccc2)C1NC(=O)CNC(=N)N", "note": "(single isomer, unassigned) [Compound 119]", "INHIBITION 250 uM RECEPTOR allBb3 SUBSTRATE VITRONECTIN": "+++ (81% to 100% inhibition at 250 micromolar)"},
      {"smiles": "CCOC1OC(COCC(=O)O)C(O)C(OCc2ccccc2)C1NC(=O)CCN", "note": "(single isomer, unassigned) [Compound 120]", "INHIBITION 250 uM RECEPTOR allBb3 SUBSTRATE VITRONECTIN": "+ (36% to 60% inhibition at 250 micromolar)"},
      {"smiles": "CCOC1OC(COCC(=O)O)C(O)C(OCc2ccccc2)C1NC(=O)CCNC(=N)N", "note": "(single isomer, unassigned) [Compound 122]", "INHIBITION 250 uM RECEPTOR allBb3 SUBSTRATE VITRONECTIN": "++ (61% to 80% inhibition at 250 micromolar)"},
      {"smiles": "COC1OC(COCC(=O)O)C(O)C(OCc2ccccc2)C1NC(=O)CCCN", "note": "(single isomer, unassigned) [Compound 123]", "INHIBITION 250 uM RECEPTOR allBb3 SUBSTRATE VITRONECTIN": "+++ (81% to 100% inhibition at 250 micromolar)"},
      {"smiles": "COC1OC(COCC(=O)O)C(O)C(OCc2ccccc2)C1NC(=O)CCCN", "note": "(single isomer, unassigned) [Compound 124]", "INHIBITION 250 uM RECEPTOR allBb3 SUBSTRATE VITRONECTIN": "+++ (81% to 100% inhibition at 250 micromolar)"},
      {"smiles": "COC1OC(COCC(=O)O)C(O)C(OCc2ccccc2)C1NC(=O)CCCNC(=N)N", "note": "(single isomer, unassigned) [Compound 125]", "INHIBITION 250 uM RECEPTOR allBb3 SUBSTRATE VITRONECTIN": "+++ (81% to 100% inhibition at 250 micromolar)"}
    ]},
    {"target": "T2, αVβ3 integrin (Homo sapiens, UniProt P05106+P06756)", "T2 construct": "the cell line WM-115 was used as a source of αVβ3 integrin; endogenous in cells; host or cells: WM-115 cell line", "T2 sequence (P06756 31-889 limits assumed)": "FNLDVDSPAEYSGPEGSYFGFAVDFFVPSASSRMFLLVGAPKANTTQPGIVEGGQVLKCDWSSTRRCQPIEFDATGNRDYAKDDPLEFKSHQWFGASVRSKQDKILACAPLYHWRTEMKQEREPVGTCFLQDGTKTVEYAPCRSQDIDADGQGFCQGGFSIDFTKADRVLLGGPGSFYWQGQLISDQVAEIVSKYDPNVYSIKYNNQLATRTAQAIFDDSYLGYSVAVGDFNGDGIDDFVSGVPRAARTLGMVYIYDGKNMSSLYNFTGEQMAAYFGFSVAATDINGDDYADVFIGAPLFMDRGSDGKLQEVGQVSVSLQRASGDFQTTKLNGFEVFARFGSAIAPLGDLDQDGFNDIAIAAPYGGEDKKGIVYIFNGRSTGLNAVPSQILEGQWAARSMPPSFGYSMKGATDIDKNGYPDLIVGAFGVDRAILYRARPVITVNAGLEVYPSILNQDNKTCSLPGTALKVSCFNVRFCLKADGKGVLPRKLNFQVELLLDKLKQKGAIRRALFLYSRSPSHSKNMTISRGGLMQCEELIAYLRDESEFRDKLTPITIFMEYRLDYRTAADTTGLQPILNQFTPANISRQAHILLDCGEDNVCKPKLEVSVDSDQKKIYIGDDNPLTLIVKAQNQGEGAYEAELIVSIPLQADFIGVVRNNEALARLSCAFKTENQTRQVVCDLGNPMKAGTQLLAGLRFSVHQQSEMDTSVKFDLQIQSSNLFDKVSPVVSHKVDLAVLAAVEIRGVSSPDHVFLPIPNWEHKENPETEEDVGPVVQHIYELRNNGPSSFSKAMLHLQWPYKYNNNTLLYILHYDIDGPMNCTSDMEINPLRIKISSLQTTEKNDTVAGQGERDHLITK", "T2 sequence (P06756 891-1048 partner limits assumed)": "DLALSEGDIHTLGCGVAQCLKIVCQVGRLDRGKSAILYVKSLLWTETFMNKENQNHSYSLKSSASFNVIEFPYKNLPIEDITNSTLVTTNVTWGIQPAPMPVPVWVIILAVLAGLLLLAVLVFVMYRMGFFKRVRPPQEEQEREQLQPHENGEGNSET", "T2 sequence (P05106 27-788)": "as the sequence (P05106 27-788) above", "assay": "ELISA: inhibition of binding of αVβ3 integrin (source WM-115 cell line) to coated extracellular matrix protein", "conditions": "WM-115 cell line as integrin source", "how_it_was_run": "as §1", "values": [
      {"smiles": "CC(=O)NC1C(OCCNC(=N)N)OC(COCC(=O)O)C(O)C1OCc1ccccc1", "note": "(single isomer, unassigned) [Compound 113]", "INHIBITION 250 uM RECEPTOR aVb3 SUBSTRATE FIBRINOGEN": "+++ (81% to 100% inhibition at 250 micromolar)"},
      {"smiles": "COCC1OC(OCCNC(=N)N)C(NC(=O)c2ccccc2)C(OCc2ccc(C(=O)O)cc2)C1O", "note": "(single isomer, unassigned) [Compound 114]", "INHIBITION 250 uM RECEPTOR aVb3 SUBSTRATE FIBRINOGEN": "− (0% to 35% inhibition at 250 micromolar)"},
      {"smiles": "COCC1OC(OCCNC(=N)N)C(NC(=O)c2ccccc2)C(OCc2ccc(C(=O)O)cc2)C1O", "note": "(single isomer, unassigned) [Compound 115]", "INHIBITION 250 uM RECEPTOR aVb3 SUBSTRATE FIBRINOGEN": "− (0% to 35% inhibition at 250 micromolar)"},
      {"smiles": "CCOC1OC(COCC(=O)O)C(O)C(OCc2ccccc2)C1NC(=O)CN", "note": "(single isomer, unassigned) [Compound 116]", "INHIBITION 250 uM RECEPTOR aVb3 SUBSTRATE FIBRINOGEN": "− (0% to 35% inhibition at 250 micromolar)"},
      {"smiles": "CCOC1OC(COCC(=O)O)C(O)C(OCc2ccccc2)C1NC(=O)CN", "note": "(single isomer, unassigned) [Compound 117]", "INHIBITION 250 uM RECEPTOR aVb3 SUBSTRATE FIBRINOGEN": "− (0% to 35% inhibition at 250 micromolar)"},
      {"smiles": "CCOC1OC(COCC(=O)O)C(O)C(OCc2ccccc2)C1NC(=O)CNC(=N)N", "note": "(single isomer, unassigned) [Compound 118]", "INHIBITION 250 uM RECEPTOR aVb3 SUBSTRATE FIBRINOGEN": "− (0% to 35% inhibition at 250 micromolar)"},
      {"smiles": "CCOC1OC(COCC(=O)O)C(O)C(OCc2ccccc2)C1NC(=O)CNC(=N)N", "note": "(single isomer, unassigned) [Compound 119]", "INHIBITION 250 uM RECEPTOR aVb3 SUBSTRATE FIBRINOGEN": "− (0% to 35% inhibition at 250 micromolar)"},
      {"smiles": "CCOC1OC(COCC(=O)O)C(O)C(OCc2ccccc2)C1NC(=O)CCN", "note": "(single isomer, unassigned) [Compound 120]", "INHIBITION 250 uM RECEPTOR aVb3 SUBSTRATE FIBRINOGEN": "− (0% to 35% inhibition at 250 micromolar)"},
      {"smiles": "CCOC1OC(COCC(=O)O)C(O)C(OCc2ccccc2)C1NC(=O)CCNC(=N)N", "note": "(single isomer, unassigned) [Compound 122]", "INHIBITION 250 uM RECEPTOR aVb3 SUBSTRATE FIBRINOGEN": "− (0% to 35% inhibition at 250 micromolar)"},
      {"smiles": "COC1OC(COCC(=O)O)C(O)C(OCc2ccccc2)C1NC(=O)CCCN", "note": "(single isomer, unassigned) [Compound 123]", "INHIBITION 250 uM RECEPTOR aVb3 SUBSTRATE FIBRINOGEN": "− (0% to 35% inhibition at 250 micromolar)"},
      {"smiles": "COC1OC(COCC(=O)O)C(O)C(OCc2ccccc2)C1NC(=O)CCCN", "note": "(single isomer, unassigned) [Compound 124]", "INHIBITION 250 uM RECEPTOR aVb3 SUBSTRATE FIBRINOGEN": "+ (36% to 60% inhibition at 250 micromolar)"},
      {"smiles": "COC1OC(COCC(=O)O)C(O)C(OCc2ccccc2)C1NC(=O)CCCNC(=N)N", "note": "(single isomer, unassigned) [Compound 125]", "INHIBITION 250 uM RECEPTOR aVb3 SUBSTRATE FIBRINOGEN": "+ (36% to 60% inhibition at 250 micromolar)"}
    ]}
  ]
}
